Data on six compounds can be found in publication PMC12428554, “Anti-HIV and Antimicrobial Activity of 7-Hydrazino-8-hydroxyquinoline-Based Aromatic Hydrazones” (International Journal of Molecular Sciences, 2025).

Several values for one entry are separate records, joined by “and”; a condition that tells them apart may be missing. Equal entries are not always repeated.

The subject of assay [1] is HIV Rev – HIV RNA complex. More on the design: method as in PMID 25503645, PMID 17967062. Conditions: Figure 1; cited from earlier work.
Assay [2] relates to C. albicans ATCC 10231. The assay is described as follows: MIC by twofold serial dilution, C. albicans. It counts as cell-based. The following applies: Candida albicans, ATCC10231; 24 h, 35 °C; read-out: MIC (Mean ± SE) C. albicans ATCC 10231. On the procedure: (§1) Candida albicans ATCC 10231, Pseudomonas aeruginosa ATCC 27853, and Staphylococcus aureus ATCC 29213 strains were obtained from the American Type Culture Collection (ATCC; Rockville, MD, USA). The subculture and inoculum preparation were performed according to CLSI M27-A3 for C. albicans on yeast extract peptone dextrose (YPD) agar (HiMedia, Mumbai, Maharashtra, India) and RPMI-1640 medium (PanEco, Moscow, Russia) with MOPS (3-(N-morpholino) propanesulfonic acid, >99.5%; PanEco, Moscow, Russia), and M7-A11 for P. aeruginosa and S. aureus on Mueller-Hinton agar (MHA; HiMedia, Mumbai, Maharashtra, India) and Mueller-Hinton broth (MHB; HiMedia, Mumbai, Maharashtra, India). The stock cell concentrations of fungus and bacteria were 1 × 10^6 and 1 × 10^8 cells/mL, respectively. A working suspension of C. albicans (5.0 × 10^2 cells/mL) was prepared by two-step dilution of the broth concentration with the RPMI-1640 medium. Assay suspensions of P. aeruginosa and S. aureus (1.0 × 10^6 cells/mL) were prepared by diluting the concentration with Mueller-Hinton broth (HiMedia, Mumbai, Maharashtra, India). Amphotericin B (Sigma-Aldrich, Burlington, MA, USA) and gentamicin (Sigma-Aldrich, Burlington, MA, USA) were used as secondary pharmaceutical standards.
(§2) The minimum inhibitory concentration (MIC) was determined by the twofold serial dilution method, according to CLSI M27-A3 [33] and M07-A11 [34], in three independent experiments with four replicates each. Amphotericin B was used as a positive control for fungus; gentamicin was used as a positive control for bacteria. Stock solutions except gentamicin were prepared in DMSO at a concentration of 6400 μg/mL. Gentanicin was solubilized in sterile water at a concentration of 1280 μg/mL. Stock solutions of the tested substances were diluted to the final concentrations in the assay medium and 100 μL of each sample was added to the wells of 96-well plates, and then 100 μL of inoculum was added. Rows 11 and 12 were left for the negative control (medium with inoculum without the drug) and sterility control. The plates were incubated for 24 h at 35 °C in the case of C. albicans and at 37 °C in the case of P. aeruginosa and S. aureus. The tested concentration for gentamicin ranged from 0.0625 to 32 μg/mL; for other compounds, it ranged from 0.125 to 64 μg/mL. The MIC value was determined using spectrophotometer. The MIC was taken to be the lowest drug concentration that caused complete inhibition of microorganism growth compared to the control. The final MIC values were reported as the means with standard error (SE). Standard errors for µg/mL values less than 0.01 were excluded; standard errors for µM values less than 0.1 were excluded (Table 3).

Assay [3] relates to HIV-1 (subtype B) in MT-4 cells. The assay is described as follows: Antigen p24 assay in HIV-infected MT-4 cells. The format is cell-based. Conditions: Human immunodeficiency virus 1, MT4; HIV-1 899A strain (subtype B), third day after infection. On the procedure: The human MT-4 lymphoblastoid cells were cultured in RPMI 1640 medium supplemented with 10% fetal bovine serum (FBS) (HyClone, Logan, UT, USA), 2 mM L-glutamine, 50 U/mL penicillin, and 50 μg/mL streptomycin in a humidified atmosphere of 5% CO2 at 37 °C. The cells were re-seeded at a density of 3.0 × 10^5 cells/mL every three days. The HIV-1_899A strain (subtype B) was used from the collection of human immunodeficiency virus strains of the D.I. Ivanovsky Institute of Virology, N. F. Gamaleya National Research Center of Epidemiology and Microbiology, Ministry of Health, Moscow, Russia. The commercial drug Efavirenz (EFV), a non-nucleoside inhibitor of HIV reverse transcriptase, was used as a positive control. HIV-1 was added to the cells at 0.1 CCID50 (50% cell culture infectious dose). The cells, both infected and non-infected, were then incubated at 37 °C in a humidified atmosphere containing 5% CO2 for a 40 min period, after which the cells were washed twice in serum-free RPMI 1640 and plated into the wells of a 96-well plate. The tested compounds were then added to the cells at concentrations from 0.5 μM to 100 μM. The final ethanol concentration was 1% v/v. On the third day after infection, the culture fluid was collected for determining the amount of p24 antigen by enzyme immunoassay analysis using a commercial test system kit (Genscreen ULTRA HIV Ag-Ab, Bio-Rad, Hercules, CA, USA). Cell viability was measured by MTT assay.

Assay [4] has as its system S. aureus ATCC 29213. The assay is described as follows: MIC by twofold serial dilution, S. aureus. The format is cell-based. The following applies: Staphylococcus aureus, ATCC29213, 24 h, 37 °C, read-out: MIC (Mean ± SE) S. aureus ATCC 29213. The protocol:
as §1, §2

Assay [5] relates to P. aeruginosa ATCC 27853. The assay is described as follows: MIC by twofold serial dilution, P. aeruginosa. It counts as cell-based. The following applies: Pseudomonas aeruginosa, ATCC27853; 24 h, 37 °C; read-out: MIC (Mean ± SE) P. aeruginosa ATCC 27853. On the procedure: as §1, §2
Assay [6] concerns the target T1, recombinant HIV-1 Integrase (strand transfer) (Human immunodeficiency virus type 1 group M subtype B, UniProt P04585).
T1 construct: The recombinant HIV-1 Integrase (In) was isolated from the Rosetta Escherichia coli producer strain; made in house; host or cells: Escherichia coli Rosetta
More on the design: method as in PMID 12234864. The following applies: positive control, known value; cited from earlier work.

The test system of assay [7] is Ku70. Also noted: method as in PMID 27130816. Conditions: read-out: IC50, Ku70 interaction with DNA; cited from earlier work.

What is called IC50 is the concentration that gives 50% inhibition. On to `FC(F)(F)Oc1ccc(Nc2ccc3cccc(Cl)c3n2)cc1` [ABX464], for which the IC50 in assay [1] was 100 to 500 nM. As usually defined, the MIC is the lowest concentration that inhibits growth of the organism. On to `C[C@@H]1[C@H](O)[C@@H](C)/C=C/C=C/C=C/C=C/C=C/C=C/C=C/[C@H](O[C@@H]2O[C@H](C)[C@@H](O)[C@H](N)[C@@H]2O)C[C@@H]2O[C@](O)(C[C@@H](O)C[C@@H](O)[C@H](O)CC[C@@H](O)C[C@@H](O)CC(=O)O[C@H]1C)C[C@H](O)[C@H]2C(=O)O` [Amphotericin B, reference compound], for which the MIC in assay [2] was 0.4 µg/mL and 0.4 µM.

For the compound `O=C1Nc2ccc(Cl)cc2[C@@](C#CC2CC2)(C(F)(F)F)O1` [EFV, Efavirenz, reference compound], the IC50 in assay [3] was below 50 nM. As to `CNC(C)C1CCC(N)C(OC2C(N)CC(N)C(OC3OCC(C)(O)C(NC)C3O)C2O)O1` (stereo not shown) [Gentamicin, reference compound], the MIC is 0.6 µg/mL and 1.3 µM in assay [4]; 2 µg/mL and 4.2 µM in assay [5].

For the compound `O=C(O)C(=O)CC(=O)c1cc(OCc2ccccc2)cc(OCc2ccccc2)c1` [L-708,906], in assay [6], the IC50 is 500 ± 100 nM. With `COc1ccc(CCNc2ncc3c(=O)n(-c4cccc(F)c4)c(=O)[nH]c3n2)cc1OC` [STL127705], in assay [7], the 50% inhibitory concentration (IC50) was 3500 nM.
